Test results published in US12686665B2, “Bicyclic fused ring derivative or salt thereof and pharmaceutical composition comprising same” (YUHAN CORPORATION, priority 2021, dated 2026).
Where a name gives a salt, the structure may show the parent alone.

How the values were obtained:
Type in all cases: biochemical
[1] = target: T1, recombinant human DAO (diamine oxidase) (Homo sapiens, UniProt P19801); experiment: Amplex Red HRP-coupled amine oxidase assay, recombinant human DAO; conditions: 1 mM putrescine substrate, read-out: Inhibitory activity (IC50, nM) DAO
T1 construct: purchased R&D systems
T1 sequence (P19801 20-751): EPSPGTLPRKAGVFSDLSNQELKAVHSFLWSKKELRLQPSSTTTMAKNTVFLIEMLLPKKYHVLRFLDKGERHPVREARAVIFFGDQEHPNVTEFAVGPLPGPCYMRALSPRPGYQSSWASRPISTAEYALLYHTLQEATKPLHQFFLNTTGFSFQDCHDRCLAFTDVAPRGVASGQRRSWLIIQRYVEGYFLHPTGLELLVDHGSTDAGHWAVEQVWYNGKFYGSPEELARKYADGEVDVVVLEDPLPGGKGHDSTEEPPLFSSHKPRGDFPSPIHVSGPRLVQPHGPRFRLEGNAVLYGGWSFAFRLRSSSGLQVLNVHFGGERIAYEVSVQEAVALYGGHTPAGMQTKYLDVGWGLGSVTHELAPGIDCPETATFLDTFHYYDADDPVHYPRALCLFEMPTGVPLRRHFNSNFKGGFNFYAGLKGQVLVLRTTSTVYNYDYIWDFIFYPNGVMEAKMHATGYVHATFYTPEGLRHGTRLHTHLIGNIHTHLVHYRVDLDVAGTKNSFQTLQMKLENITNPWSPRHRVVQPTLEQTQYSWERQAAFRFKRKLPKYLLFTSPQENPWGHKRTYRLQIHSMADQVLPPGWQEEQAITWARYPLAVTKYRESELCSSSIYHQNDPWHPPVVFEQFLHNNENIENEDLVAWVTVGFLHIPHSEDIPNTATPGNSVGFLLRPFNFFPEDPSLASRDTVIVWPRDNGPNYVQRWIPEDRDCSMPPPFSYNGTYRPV
Method: (§1) The activities of the compounds according to the present invention against recombinant human Lysyl Oxidase-Like 2 (recombinant human LOXL2, R&D systems) were evaluated by measuring the levels of hydrogen peroxide in the HRP (horseradish peroxidase) coupled reactions, with the Amplex Red Hydrogen Peroxide Assay Kit (Molecular Probes, Invitrogen, USA). The tests were carried out at 37° C., and putrescine was used as a substrate. In the HRP coupling reaction, the oxidation of 10-acetyl-3,7-dihydroxyphenoxazine (Amplex Red reagent) by hydrogen peroxide generates a fluorescent product, i.e., resorufin. Briefly, the test compounds were dissolved in dimethyl sulfoxide (DMSO) at a concentration of 20 mM. Dose-response measurements were carried out by serial dilutions in DMSO to generate a six-point curve. The upper concentration was adjusted according to the potency of the compound, and then diluted with the reaction buffer to obtain a final DMSO concentration of 1%. Purified human LOXL2 in 50 mM sodium phosphate buffer (pH7.4) was added to each well of a 96 well black plate. The test compounds dissolved in DMSO were incubated with the human LOXL2 enzyme at 37° C. for 60 minutes. After the incubation for 60 minutes, a reaction mixture containing 400 μM Amplex Red reagent, 30 mM putrescine, and 2 U/mL HRP in 50 mM sodium phosphate buffer (pH 7.4) was added to each well. Fluorescence was measured with a microplate reader (Flexstation3, Molecular Devices), under the conditions of excitation at 530 nm and emission at 590 nm, 1 hour after the addition of the mixture. Inhibition by each compound was measured as % reduction in signal, compared to the control without an inhibitor (diluted DMSO only). The data were fixed to a four-variable logistic model, and […] values were calculated using the GraphPad Prism program.
(§2) And, the activities of the compounds according to the present invention against recombinant human MAO-A (monoamine oxidase-A, Sigma-Aldrich) and recombinant human MAO-B (monoamine oxidase-B, Sigma-Aldrich) were evaluated in a similar manner to the activity evaluation method for recombinant human LOXL2, using 0.5 mM tyramine and 1 mM benzylamine as a substrate, respectively. In addition, the activities of the compounds according to the present invention against recombinant human DAO (diamine oxidase, R&D systems) were evaluated in a similar manner to the activity evaluation method for recombinant human LOXL2, using 1 mM putrescine as a substrate.

[2] = target: T2, recombinant human MAO-B (monoamine oxidase-B) (Homo sapiens, UniProt P27338); experiment: Amplex Red HRP-coupled amine oxidase assay, recombinant human MAO-B; conditions: 1 mM benzylamine substrate, read-out: Inhibitory activity (IC50, nM) MAO-B
T2 construct: purchased Sigma-Aldrich
T2 sequence (P27338 1-520): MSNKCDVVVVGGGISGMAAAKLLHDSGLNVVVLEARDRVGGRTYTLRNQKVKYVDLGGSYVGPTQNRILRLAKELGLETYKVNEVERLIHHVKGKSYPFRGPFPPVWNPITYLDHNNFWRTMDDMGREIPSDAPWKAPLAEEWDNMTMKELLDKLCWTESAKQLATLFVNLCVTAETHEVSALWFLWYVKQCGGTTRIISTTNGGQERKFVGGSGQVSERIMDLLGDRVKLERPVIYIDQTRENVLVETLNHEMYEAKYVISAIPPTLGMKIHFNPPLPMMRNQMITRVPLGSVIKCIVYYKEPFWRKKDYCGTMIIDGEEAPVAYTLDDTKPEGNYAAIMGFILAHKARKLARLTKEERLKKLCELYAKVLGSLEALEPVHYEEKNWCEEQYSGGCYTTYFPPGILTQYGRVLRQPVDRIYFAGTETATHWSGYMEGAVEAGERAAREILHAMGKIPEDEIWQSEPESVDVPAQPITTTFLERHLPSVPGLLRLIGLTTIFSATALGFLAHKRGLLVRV
Method: as §1, §2

[3] = target: T3, recombinant human MAO-A (monoamine oxidase-A) (Homo sapiens, UniProt P21397); experiment: Amplex Red HRP-coupled amine oxidase assay, recombinant human MAO-A; conditions: 0.5 mM tyramine substrate, read-out: Inhibitory activity (IC50, nM) MAO-A
T3 construct: purchased Sigma-Aldrich
T3 sequence (P21397 1-527): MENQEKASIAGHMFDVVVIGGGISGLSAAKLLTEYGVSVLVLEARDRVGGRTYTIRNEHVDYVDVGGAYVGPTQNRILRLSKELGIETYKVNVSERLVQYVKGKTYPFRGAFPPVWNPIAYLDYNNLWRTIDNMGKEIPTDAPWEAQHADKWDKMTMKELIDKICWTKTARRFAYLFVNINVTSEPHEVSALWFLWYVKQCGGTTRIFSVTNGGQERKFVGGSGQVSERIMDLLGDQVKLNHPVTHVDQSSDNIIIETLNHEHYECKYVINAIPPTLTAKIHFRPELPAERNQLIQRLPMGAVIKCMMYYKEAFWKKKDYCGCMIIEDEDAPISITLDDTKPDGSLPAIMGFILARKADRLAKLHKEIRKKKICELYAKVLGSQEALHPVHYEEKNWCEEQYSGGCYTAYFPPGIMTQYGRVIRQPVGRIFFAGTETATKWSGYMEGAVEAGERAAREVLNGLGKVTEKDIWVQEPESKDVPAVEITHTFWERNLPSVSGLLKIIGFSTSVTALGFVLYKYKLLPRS
Method: as §1, §2

[4] = target: T4, recombinant human Lysyl Oxidase-Like 2 (LOXL2) (Homo sapiens, UniProt Q9Y4K0); experiment: Amplex Red HRP-coupled amine oxidase assay, recombinant human LOXL2; conditions: 60 min incubation with enzyme at 37° C., putrescine substrate, read-out: Inhibitory activity (IC50, nM) human LOXL2
T4 construct: purchased R&D systems
T4 sequence (Q9Y4K0 26-774): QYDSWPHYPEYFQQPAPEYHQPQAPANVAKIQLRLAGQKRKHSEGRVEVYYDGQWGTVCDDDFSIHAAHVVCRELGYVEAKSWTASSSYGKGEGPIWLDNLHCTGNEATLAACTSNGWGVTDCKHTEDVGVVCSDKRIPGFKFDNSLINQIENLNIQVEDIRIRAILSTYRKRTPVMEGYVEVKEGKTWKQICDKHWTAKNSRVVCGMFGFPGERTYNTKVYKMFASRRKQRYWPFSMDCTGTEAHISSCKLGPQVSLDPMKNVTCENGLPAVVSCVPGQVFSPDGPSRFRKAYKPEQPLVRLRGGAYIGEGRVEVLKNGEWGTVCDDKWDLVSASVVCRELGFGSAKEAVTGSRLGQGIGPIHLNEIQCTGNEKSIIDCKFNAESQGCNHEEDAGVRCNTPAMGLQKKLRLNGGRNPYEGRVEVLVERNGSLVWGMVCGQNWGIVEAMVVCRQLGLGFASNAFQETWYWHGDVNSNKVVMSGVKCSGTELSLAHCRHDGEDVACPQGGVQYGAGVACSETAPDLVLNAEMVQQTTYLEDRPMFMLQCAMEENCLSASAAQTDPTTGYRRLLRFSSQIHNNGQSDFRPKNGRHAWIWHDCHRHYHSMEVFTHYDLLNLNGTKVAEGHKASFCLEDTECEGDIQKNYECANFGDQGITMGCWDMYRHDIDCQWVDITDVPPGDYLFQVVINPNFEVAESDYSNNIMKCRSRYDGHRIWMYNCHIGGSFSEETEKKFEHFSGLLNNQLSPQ
Procedure, shortened: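 Putrescine substrate (30 mM) in 50 mM sodium phosphate pH 7.4, 37 °C; compounds preincubated 60 min with enzyme, 1% DMSO final, six-point curves. H2O2 detected via 400 μM Amplex Red/2 U/mL HRP, fluorescence (ex 530/em 590 nm) after 1 h; IC50 from four-parameter logistic fit of % signal reduction.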

IC50 [1]	IC50 [2]	IC50 [3]	IC50 [4]	SMILES
47700 nM	> 100000 nM	> 100000 nM	67.6 nM	COC(=O)c1cc(-c2cc(S(=O)(=O)C(F)(F)F)ccc2C)c2ncn(C/C(F)=C/CN)c2c1 [Example 35, methyl (Z)-1-(4-amino-2-fluorobut-2-en-1-yl)-4-(2-methyl-5-((trifluoromethyl)sulfonyl)phenyl)-1H-benzo[d]imidazol-6-carboxylate hydrochloride]
3460 nM	> 100000 nM	> 100000 nM	29.7 nM	CNS(=O)(=O)c1cccc(-c2cc(C(=O)OC)cc3c2ncn3C/C(F)=C/CN)c1 [Example 30, methyl (Z)-1-(4-amino-2-fluorobut-2-en-1-yl)-4-(3-(N-methylsulfamoyl)phenyl)-1H-benzo[d]imidazol-6-carboxylate hydrochloride]
5400 nM	> 100000 nM	26900 nM	273 nM	CC(=O)c1ccc(F)c(-c2cc(C(F)(F)F)cc3c2ncn3C/C(F)=C/CN)c1 [Example 169, (Z)-1-(3-(1-(4-amino-2-fluorobut-2-en-1-yl)-6-(trifluoromethyl)-1H-benzo[d]imidazol-4-yl)-4-fluorophenyl)ethan-1-one hydrochloride]
> 100000 nM	> 100000 nM	> 100000 nM	68 nM	CNS(=O)(=O)c1cccc(-c2cccc3c2nc(C(F)(F)F)n3C/C(F)=C/CN)c1 [Example 53, (Z)-3-(1-(4-amino-2-fluorobut-2-en-1-yl)-2-(trifluoromethyl)-1H-benzo[d]imidazol-4-yl)-N-methylbenzenesulfonamide hydrochloride]
26700 nM	> 100000 nM	> 100000 nM	92.4 nM	Cn1nccc1-c1cc(C(F)(F)F)cc2c1ncn2C/C(F)=C/CN [Example 176, (Z)-3-fluoro-4-(4-(1-methyl-1H-pyrazol-5-yl)-6-(trifluoromethyl)-1H-benzo[d]imidazol-1-yl) but-2-en-1-yl-amine hydrochloride]
44500 nM	> 100000 nM	> 100000 nM	82.3 nM	COC(=O)c1cc(-c2cccc(P(C)(C)=O)c2)c2ncn(C/C(F)=C/CN)c2c1 [Example 38, methyl (Z)-1-(4-amino-2-fluorobut-2-en-1-yl)-4-(3-(dimethylphosphoryl)phenyl)-1H-benzo[d]imidazol-6-carboxylate hydrochloride]
139 nM	> 100000 nM	24600 nM	19.4 nM	COC(=O)c1cc(-c2cccc(S(=O)(=O)N(C)C)c2)c2ncn(C/C(F)=C/CN)c2c1 [Example 31, methyl (Z)-1-(4-amino-2-fluorobut-2-en-1-yl)-4-(3-(N,N-dimethysulfamoyl)phenyl)-1H-benzo[d]imidazol-6-carboxylate hydrochloride]
3100 nM	> 100000 nM	48600 nM	39 nM	NC/C=C(\F)Cn1cnc2c(-c3cccc(S(=O)(=O)NC4CC4)c3)cc(F)cc21 [Example 9, (Z)-3-(1-(4-amino-2-fluorobut-2-en-1-yl)-6-fluoro-1H-benzo[d]imidazol-4-yl)-N-cyclopropylbenzenesulfonamide hydrochloride]
–	> 100000 nM	> 100000 nM	137 nM	CCn1nccc1-c1cc(C#N)cc2c1ncn2C/C(F)=C/CN [Example 192, (Z)-1-(4-amino-2-fluorobut-2-en-1-yl)-4-(1-ethyl-1H-pyrazol-5-yl)-1H-benzo[d]imidazol-6-carbonitrile hydrochloride]
–	> 100000 nM	> 100000 nM	43.1 nM	N#Cc1cc(-c2cccc(S(=O)(=O)N3CCCC3)c2)c2ncn(C/C(F)=C/CN)c2c1 [Example 181, (Z)-1-(4-amino-2-fluorobut-2-en-1-yl)-4-(3-(pyrrolidin-1-ylsulfonyl)phenyl)-1H-benzo[d]imidazol-6-carbonitrile hydrochloride]
